The source of these data is patent publication USRE36139E, “Hydroquinone derivative” (Nippon Hypox Laboratories Incorporated, priority 1995, dated 1999).

One data set relates to rats. The following applies: liver, large intestine, small intestine and gland of external acoustic meatus; cited from earlier work.
For a further data set, the system named is Salmonellae. The following applies: result in words; cited from earlier work.
The test system of the next data set is laboratory animals. The following applies: result in words; cited from earlier work.
Data set [1] has as its system lipid of rat liver microsome. As to the kind of experiment: Inhibition activity against hyperoxidation of lipid of rat liver microsome. The data set is classed as biochemical, male Sprague Dawley (SD) rats. The following applies: for antioxidant activity (conclusion from Table 2): result in words; for antioxidant activity: general statement in words, no test named at the place. The protocol: [Inhibition activity against hyperoxidation of lipid of rat liver microsome ] (1) Preparation of rat liver microsome suspension, A plurality of male Sprague Dawley (SD) rats (weighing […]) were prepared. Each rat was anesthetized with pentobarbital, and then subjected to celiotomy. A cannula was introduced into the portal vein of each rat, the abdominal large veins were sectioned, and 500 ml of cold 0.9% NaCl was injected into the portal veins. Livers were extracted from individual rats, and the livers were cut to pieces in 1.15% KCl and homogenized with ice cooling. Then, 1.15% KCl was further added to obtain a 30% liver homogenized solution. The above homogenized solution was centrifugally separated at 8,000 g (g: gravitation acceleration) for 10 minutes, and the resultant supernatant was recovered. […] The so-prepared suspension was stored at -20° C. before a test described in the following (2), and it was used within 1 week after the preparation. (2) Test on inhibition activity against hyperoxidation of lipid As test compounds, the hydroquinone (HQ) derivatives obtained in Preparation Examples 1 to 12, a known hydroquinone derivative which was a compound of the formula (I) in which R^1 was methyl (hereinafter referred to as HQ1) and BHT were respectively tested on their inhibition activities against hyperoxidation of lipid in the following manner. First, 0.1 ml of the liver microsome suspension obtained in the above (1), 0.1 ml of reduced […] (NADPH) (final concentration 2 mM), 0.1 ml of adenosine 5'-diphosphate (ADP) (final concentration 10 mM) and 0.1 ml of a solution of one of the test compounds whose concentration was adjusted as shown in Table 2 with 10% dimethylformamide (DMF) were added to a tris-HCl buffer (167 mM KCl, 74 mM tris-HCE buffer (TRIS), pH 7.4), and the resultant mixture was warmed at 37° C. for 5 minutes. Then, 0.1 ml of FeCl3 (final concentration 0.1 mM) was added, and the mixture was warmed at 37° C. for 20 minutes. […] Then, 0.2 ml of 8.1% sodium dodecylsulfate (SDS), 1.5 ml of an acetic acid buffer (prepared by adjusting 20% acetic acid containing 0.27 mM HCl to pH 3.5 with 10N NaOH) and 1.5 ml of 0.8% thiobarbituric acid were added to the cooled reaction mixture, and the resultant mixture was warmed over a boiling water bath for 20 minutes. […] The mixture was vigorously stirred. The reaction mixture was centrifugally separated at 2,000 rpm for 10 minutes, and the resultant supernatant was measured for an absorbance at 532 nm to determine a thiobarbituric acid reaction amount. […] In Control, the solution of the test compound in 10% DMF was replaced with 0.1 ml of a 10% DMF solution, and the above procedures were repeated to determine a peroxidized lipid amount. In Blank, each of 0.1 ml of NDAPH, 0.1 ml of ADP and 0.1 ml of FeCl3 were replaced with 0.1 ml of water, the solution of the test compound in 10% DMF was replaced with 0.1 ml of a 10% DMF solution, and the above procedures were repeated to determine a peroxidized lipid amount. The inhibition ratio of the lipid peroxidation reaction was calculated on the basis of the following equation. Inhibition ratio (%)=[1-(OD1 -OD3)/(OD2 -OD3)]×100 OD1 : Absorbance when test compound is added. OD2 : Absorbance of Control OD3 : Absorbance of Blank
Background: Microsomes from liver hold many membrane-bound enzymes, among them those of drug oxidation.

The test system of another data set is mice. Put plainly: Acute toxicity test by simple oral administering. To be noted: maximum dose 500 mg/kg, 14 days observation. The data set is classed as in vivo, Female ICR mice. The source says: Female ICR mice of 8 weeks age were used to carry out an acute toxicity test by simple oral administering.
Data set [2] in a line: DPPH elimination ability (active organic radical species elimination ability). The following applies: FIG. 1; absorbance at 517 nm; 0.02 ml of 10^-2 M DMF solution added to 2 ml of 10^-4 M DPPH in ethanol; result in words. Type of data set: biochemical. The protocol: [DPPH elimination ability]
The hydroquinone derivative obtained in Preparation Example 5 and BHT as test compounds were measured for the ability to eliminate DPPH (α,α-diphenyl-β-picrylhydrazyl) (active organic radical species elimination ability) in the following manner.
The test compounds were respectively dissolved in DMF to prepare DMF solutions having a test compound concentration of 10^-2 M.
Then, 0.02 ml each of the above DMF solutions were respectively added to 2 ml of an ethanol EtOH solution containing 10^-4 M of DPPH, and the resultant solutions were measured for absorbance (ODS) at 517 nm at predetermined time intervals. The DPPH elimination ability of each test compound was determined on the basis of these measurement results. In Control, the DMF solution of the test compound was replaced with DMF itself,
The elimination ability of each test compound was determined as a reduction ratio of ODS to the absorbance in Control.

The structures appear in SMILES notation.

`Cc1cccn2c1nc1ccc(N)nc12` [Glu-P-1, 2-amino-6-methyldipyrido[1,2-a:3',2'-d]imidazole]: the incidence of cancer result with rats is reported as “high rate of incidence of cancer”. Also, the mutagenic activity entry in the data set on Salmonellae is “high mutagenic activity to Salmonellae”. In addition, the carcinogenic activity result in the data set on laboratory animals was “carcinogenic activity to laboratory animals”.
With `COc1ccc(O)cc1` [HQ1, reference compound], the “Inhibition ratio of lipid peroxidation” value in data set [1] (10^-5 M test compound, 10 µM) is reported as 37.8%.
For `CCCCCCCCOc1ccc(O)cc1` [Preparation Example 1], in the data set on mice, the mortality entry is reported as “No mice were found to die”. Further, the “Inhibition ratio of lipid peroxidation” value in data set [1] (10^-5 M test compound, 10 µM) is listed as 99.7%; in data set [1] (10^-6 M test compound, 1 µM), 9.8%. In addition, in data set [1], the “antioxidant activity (conclusion from Table 2)” value is reported as “excellent antioxidant activity over the known hydroquinone derivative HQ1”.
As to `CCCCCCCCCCOc1ccc(O)cc1` [Preparation Example 2], the “Inhibition ratio of lipid peroxidation” value in data set [1] (10^-5 M test compound, 10 µM) was 79.5%; in data set [1] (10^-6 M test compound, 1 µM), 1.8%. For the same compound, the “antioxidant activity (conclusion from Table 2)” value in data set [1] is listed as “excellent antioxidant activity over the known hydroquinone derivative HQ1”.
As to `CCCCOc1cc(C)c(O)c(C)c1C` [Preparation Example 3, 1-butyl-2,3,5-trimethylhydroquinone], in data set [1] (10^-6 M test compound, 1 µM), the “Inhibition ratio of lipid peroxidation” value is 75.9%.
For `CCCCCCOc1cc(C)c(O)c(C)c1C` [Preparation Example 4], the “Inhibition ratio of lipid peroxidation” value in data set [1] (10^-5 M test compound, 10 µM) is listed as 100.0%; in data set [1] (10^-6 M test compound, 1 µM), 98.9%.
For the compound `CCCCCCCCOc1cc(C)c(O)c(C)c1C` [Preparation Example 5], the DPPH elimination ability entry in data set [2] is on record as “excellent DPPH elimination ability over BHT”. In addition, the “Inhibition ratio of lipid peroxidation” value in data set [1] (10^-5 M test compound, 10 µM) is on record as 100.0%; in data set [1] (10^-6 M test compound, 1 µM), 74.8%.
In the case of `CCCCCCCCCCOc1cc(C)c(O)c(C)c1C` [Preparation Example 6], the “Inhibition ratio of lipid peroxidation” value in data set [1] (10^-5 M test compound, 10 µM) is on record as 99.9%; in data set [1] (10^-6 M test compound, 1 µM), 38.3%.
For `CCCCCCCCCCCCOc1cc(C)c(O)c(C)c1C` [Preparation Example 7], in that order: 63.9% and 30.8%.
For `CCCCCCOc1c(C)cc(O)c(C)c1C` [Preparation Example 8], in that order: 98.3% and 40%.
Turning to `CCCCOc1ccc(O)cc1` [Preparation Example 9, 1-butylhydroquinone], the “Inhibition ratio of lipid peroxidation” value came to 86.1% in data set [1] (10^-5 M test compound, 10 µM) and 10.8% in data set [1] (10^-6 M test compound, 1 µM). Further, the antioxidant activity entry in data set [1] is on record as “excellent antioxidant activity”.
As for `CCCCCCOc1ccc(O)cc1` [Preparation Example 10], the “Inhibition ratio of lipid peroxidation” value in data set [1] (10^-5 M test compound, 10 µM) stood at 99.1%; in data set [1] (10^-6 M test compound, 1 µM) it was 8.8%. For the same compound, the antioxidant activity entry in data set [1] was “excellent antioxidant activity”.
As to `CCCCCCCCCCCCOc1ccc(O)cc1` [Preparation Example 11, 1-dodecylhydroquinone], the “Inhibition ratio of lipid peroxidation” value is 73.4% in data set [1] (10^-5 M test compound, 10 µM) and 6.3% in data set [1] (10^-6 M test compound, 1 µM). In data set [1], the antioxidant activity entry is recorded as “excellent antioxidant activity”.
`CCOc1cc(C)c(O)c(C)c1C` [Preparation Example 12, 1-ethyl-2,3,5-trimethylhydroquinone]: the mortality entry in the data set with mice was “No mice were found to die”. Also, the “Inhibition ratio of lipid peroxidation” value in data set [1] (10^-5 M test compound, 10 µM) came out at 87.2%.
